Reference: patent US7153851B2, “10-(3-cyclopropylaminomethyl-1-pyrrolidinyl)pyridobenzoxazinecarboxylic acid derivative effective against resistant bacterium” (Kyorin Pharmaceutical Co., Ltd., priority 2002, dated 2006)
≈ marks a conversion by molar mass, not a printed value.

Legend:
Assay in all cases: In vitro antibacterial activity (MIC), agar dilution method according to NCCLS
Type in all cases: cell-based
S. aureus Smith = settings: Muller-Hinton agar medium
Protocol: (§1) The in vitro antibacterial activity (as measured by the minimum inhibitory concentration (MIC)) was determined for each of the compounds of the present invention by the agar dilution method according to NCCLS (National Committee for Clinical Laboratory Standard (1997), Methods for Dilution Antibacterial Susceptibility Tests for Bacteria that grow Aerobically-Forth Edition: Approved Standard m7-A4. NCCLS, Villanova, Pa.), which involved the use of Muller-Hinton agar medium.

[1] = tested on: S. aureus MS16401 (quinolone-resistant S. aureus); settings: Muller-Hinton agar medium
Protocol: as §1

[2] = tested on: S. aureus MR5867 (methicillin-resistant S. aureus); settings: Muller-Hinton agar medium
Protocol: as §1

S. pneumoniae Type III = settings: Muller-Hinton agar medium containing 5% defibrinated equine blood
E. faecalis IID682 = tested on: E. faecalis IID682; set-up: unit not given here; settings: Muller-Hinton agar medium containing 5% defibrinated equine blood

| Compound | MIC (S. aureus Smith) | MIC [1] | MIC [2] | MIC (S. pneumoniae Type III) | MIC (E. faecalis IID682) |
| --- | --- | --- | --- | --- | --- |
| C[C@H]1CN(c2c(F)cc3c(=O)c(C(=O)O)cn4c3c2OC[C@@H]4CF)C[C@@H]1CNC1CC1 [Example 17, (3R)-10-[(3S,4R)-3-cyclopropylaminomethyl-4-methyl-1-pyrrolidinyl]-9-fluoro-3-fluoromethyl-2,3-dihydro-7-oxo-7H-pyrido[1,2,3-d,e][1,4]benzoxazine-6-carboxylic acid] | 0.008 | 63 µg/mL (≈ 145 µM) | 0.008 | 0.016 | 0.063 |
| C[C@H]1CN(c2c(F)cc3c(=O)c(C(=O)O)cn4c3c2OC[C@@H]4C)C[C@@H]1CNC1CC1 [Example 11, (3S)-10-[(3S,4R)-3-cyclopropylaminomethyl-4-methyl-1-pyrrolidinyl]-9-fluoro-2,3-dihydro-3-methyl-7-oxo-7H-pyrido[1,2,3-d,e][1,4]benzoxazine-6-carboxylic acid] | 0.008 | 31 µg/mL (≈ 74.6 µM) | 0.008 | 0.016 | 0.063 |
| C[C@H]1CN(c2c(F)cc3c(=O)c(C(=O)O)cn4c3c2OC[C@@H]4C)C[C@H]1CNC1CC1 (relative stereo) [Example 13, (3S)-10-(cis-3-cyclopropylaminomethyl-4-methyl-1-pyrrolidinyl)-9-fluoro-2,3-dihydro-3-methyl-7-oxo-7H-pyrido[1,2,3-d,e][1,4]benzoxazine-6-carboxylic acid] | 0.008 | 31 µg/mL (≈ 74.6 µM) | 0.008 | 0.031 | 0.125 |
| C[C@@H]1CN(c2c(F)cc3c(=O)c(C(=O)O)cn4c3c2OC[C@@H]4CF)C[C@H]1CNC1CC1 (relative stereo) [Example 16, (3R)-10-(trans-3-cyclopropylaminomethyl-4-methyl-1-pyrrolidinyl)-9-fluoro-3-fluoromethyl-2,3-dihydro-7-oxo-7H-pyrido[1,2,3-d,e][1,4]benzoxazine-6-carboxylic acid] | 0.016 | 63 µg/mL (≈ 145 µM) | 0.016 | 0.032 | 0.063 |
| C[C@@H]1CN(c2c(F)cc3c(=O)c(C(=O)O)cn4c3c2OC[C@@H]4CF)C[C@@H]1CNC1CC1 [Example 18, (3R)-10-[(3S,4S)-3-cyclopropylaminomethyl-4-methyl-1-pyrrolidinyl]-9-fluoro-3-fluoromethyl-2,3-dihydro-7-oxo-7H-pyrido[1,2,3-d,e][1,4]benzoxazine-6-carboxylic acid] | 0.008 | 63 µg/mL (≈ 145 µM) | 0.016 | 0.016 | 0.063 |
| C[C@H]1COc2c(N3C[C@H](NC4CC4)[C@@H](F)C3)c(F)cc3c(=O)c(C(=O)O)cn1c23 [Example 21, (3S)-10-[(3S,4S)-3-cyclopropylamino-4-fluoro-1-pyrrolidinyl]-9-fluoro-2,3-dihydro-3-methyl-7-oxo-7H-pyrido[1,2,3-d.e][1,4]benzoxazine-6-carboxylic acid] | 0.016 | 31 µg/mL (≈ 76.5 µM) | 0.016 | 0.016 | 0.063 |
| C[C@H]1COc2c(N3C[C@@H](CNC4CC4)[C@H](C(F)(F)F)C3)c(F)cc3c(=O)c(C(=O)O)cn1c23 (relative stereo) [Example 19, (3S)-10-(trans-3-cyclopropylaminomethyl-4-trifluoromethyl-1-pyrrolidinyl)-9-fluoro-2,3-dihydro-3-methyl-7-oxo-7H-pyrido[1,2,3-d,e][1,4]benzoxazine-6-carboxylic acid] | 0.016 | 125 µg/mL (≈ 266 µM) | 0.016 | 0.125 | 0.25 |
| CC(=O)OC[C@@H]1COc2c(N3CC[C@@H](CNC4CC4)C3)c(F)cc3c(=O)c(C(=O)O)cn1c23 [Example 5, (3S)-3-acetoxymethyl-10-[(3S)-3-cyclopropylaminomethyl-1-pyrrolidinyl]-9-fluoro-2,3-dihydro-7-oxo-7H-pyrido[1,2,3-d,e][1,4]benzoxazine-6-carboxylic acid] | 0.25 | 4000 µg/mL (≈ 8710 µM) | 0.25 | 0.125 | 0.25 |
| O=C(O)c1cn2c3c(c(N4C[C@H](CNC5CC5)[C@H](F)C4)c(F)cc3c1=O)OC[C@@H]2CF [Example 20, (3R)-10-[(3S,4S)-3-cyclopropylaminomethyl-4-fluoro-1-pyrrolidinyl]-9-fluoro-3-fluoromethyl-2,3-dihydro-7-oxo-7H-pyrido[1,2,3-d.e][1,4]benzoxazine-6-carboxylic acid] | 0.008 | 63 µg/mL (≈ 144 µM) | 0.016 | 0.016 | 0.063 |
| O=C(O)c1cn2c3c(c(N4CC[C@@H](CNC5CC5)C4)c(F)cc3c1=O)OC[C@@H]2CO [Example 6, (3S)-10-[(3S)-3-cyclopropylaminomethyl-1-pyrrolidinyl]-9-fluoro-2,3-dihydro-3-hydroxymethyl-7-oxo-7H-pyrido[1,2,3-d,e][1,4]benzoxazine-6-carboxylic acid] | 0.25 | 4000 µg/mL (≈ 9580 µM) | 0.25 | 0.125 | 0.25 |
| O=C(O)c1cn2c3c(c(N4CC[C@@H](CNC5CC5)C4)c(F)cc3c1=O)OC[C@@H]2CF [Example 1, (3R)-10-[(3S)-3-cyclopropylaminomethyl-1-pyrrolidinyl]-9-fluoro-3-fluoromethyl-2,3-dihydro-7-oxo-7H-pyrido[1,2,3-d,e][1,4]benzoxazine-6-carboxylic acid] | 0.016 | 125 µg/mL (≈ 298 µM) | 0.016 | 0.032 | 0.063 |

Other lines, results leading:

| MIC (S. aureus Smith) | MIC [1] | MIC [2] | MIC (S. pneumoniae Type III) | MIC (E. faecalis IID682) | Compound |
| --- | --- | --- | --- | --- | --- |
| 0.016 | 63 µg/mL (≈ 152 µM) | 0.016 | 0.063 | 0.25 | C[C@@H]1CN(c2c(F)cc3c(=O)c(C(=O)O)cn4c3c2OC[C@@H]4C)C[C@H]1CNC1CC1 [Example 12, (3S)-10-[(3R,4S)-3-cyclopropylaminomethyl-4-methyl-1-pyrrolidinyl]-9-fluoro-2,3-dihydro-3-methyl-7-oxo-7H-pyrido[1,2,3-d,e][1,4]benzoxazine-6-carboxylic acid] |
| 0.016 | 63 µg/mL (≈ 152 µM) | 0.016 | 0.031 | 0.125 | C[C@@H]1CN(c2c(F)cc3c(=O)c(C(=O)O)cn4c3c2OC[C@@H]4C)C[C@H]1CNC1CC1 (relative stereo) [Example 10, (3S)-10-(trans-3-cyclopropylaminomethyl-4-methyl-1-pyrrolidinyl)-9-fluoro-2,3-dihydro-3-methyl-7-oxo-7H-pyrido[1,2,3-d,e][1,4]benzoxazine-6-carboxylic acid] |
| 0.031 | 250 µg/mL (≈ 596 µM) | 0.016 | 0.125 | 0.25 | O=C(O)c1cn2c3c(c(N4CC[C@H](CNC5CC5)C4)c(F)cc3c1=O)OC[C@@H]2CF [Example 2, (3R)-10-[(3R)-3-cyclopropylaminomethyl-1-pyrrolidinyl]-9-fluoro-3-fluoromethyl-2,3-dihydro-7-oxo-7H-pyrido[1,2,3-d,e][1,4]benzoxazine-6-carboxylic acid] |
| ≦0.008 mg/mL | 63 µg/mL (≈ 158 µM) | ≦0.008 mg/mL | 0.016 | 0.125 | C=C1COc2c(N3CC[C@@H](CNC4CC4)C3)c(F)cc3c(=O)c(C(=O)O)cn1c23 [Example 7, 10-[(3S)-3-cyclopropylaminomethyl-1-pyrrolidinyl]-9-fluoro-2,3-dihydro-3-methylene-7-oxo-7H-pyrido[1,2,3-d,e][1,4]benzoxazine-6-carboxylic acid] |
| 0.031 | 63 µg/mL (≈ 152 µM) | 0.031 | 0.063 | 0.125 | C[C@H]1CN(c2c(F)cc3c(=O)c(C(=O)O)cn4c3c2OC[C@@H]4C)C[C@H]1CNC1CC1 [Example 15, (3S)-10-[(3R,4R)-3-cyclopropylaminomethyl-4-methyl-1-pyrrolidinyl]-9-fluoro-2,3-dihydro-3-methyl-7-oxo-7H-pyrido[1,2,3-d,e][1,4]benzoxazine-6-carboxylic acid] |
| 0.031 | 500 µg/mL (≈ 1160 µM) | 0.031 | 0.125 | 0.25 | COC[C@H]1COc2c(N3CC[C@@H](CNC4CC4)C3)c(F)cc3c(=O)c(C(=O)O)cn1c23 [Example 4, (3S)-10-[(3S)-3-cyclopropylaminomethyl-1-pyrrolidinyl]-9-fluoro-2,3-dihydro-3-methoxymethyl-1-oxo-7H-pyrido[1,2,3-d,e][1,4]benzoxazine-6-carboxylic acid] |
| 0.008 | 31 µg/mL (≈ 74.6 µM) | 0.008 | ≦0.008 mg/mL | 0.063 | C[C@@H]1CN(c2c(F)cc3c(=O)c(C(=O)O)cn4c3c2OC[C@@H]4C)C[C@@H]1CNC1CC1 [Example 14, (3S)-10-[(3S,4S)-3-cyclopropylaminomethyl-4-methyl-1-pyrrolidinyl]-9-fluoro-2,3-dihydro-3-methyl-7-oxo-7H-pyrido[1,2,3-d,e][1,4]benzoxazine-6-carboxylic acid] |
